In ChEMBL document CHEMBL1201862, “PubChem BioAssay data set” (2004):
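Tested at 5 concentrations; 48 h exposure; 96-well plates; endpoints linearly interpolated, else capped at highest concentration. Here, GI50 denotes the concentration required for 50% inhibition of growth.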 Active and inactive are the calls of the source. Rule as the data show it: active = GI50 up to about 1.1 µM and inactive = higher.

Columns and labels:
Assay in all cases: NCI anticancer screen, dose series, 48 h
DMS-273 = tested on: DMS-273
SN12C = tested on: SN12C
SNB-19 = tested on: SNB-19
EKVX = tested on: EKVX
HCT-116 = tested on: HCT-116
KM-20L2 = tested on: KM-20L2
CAKI-1 = tested on: CAKI-1
NCI-H460 = tested on: NCI-H460
NCI-H522 = tested on: NCI-H522
Malme-3M = tested on: Malme-3M
HCC 2998 = tested on: HCC 2998
K562 = tested on: K562
OVCAR-5 = tested on: OVCAR-5
SW-620 = tested on: SW-620
HOP-62 = tested on: HOP-62
SK-OV-3 = tested on: SK-OV-3
SK-MEL-5 = tested on: SK-MEL-5
RPMI-8226 = tested on: RPMI-8226
TK-10 = tested on: TK-10
COLO 205 = tested on: COLO 205
HOP-92 = tested on: HOP-92
NCI-H226 = tested on: NCI-H226
786-0 = tested on: 786-0
SR = tested on: SR
U-251 = tested on: U-251
OVCAR-3 = tested on: OVCAR-3
KM12 = tested on: KM12
IGROV-1 = tested on: IGROV-1
A498 = tested on: A498
LOX IMVI = tested on: LOX IMVI
HCT-15 = tested on: HCT-15
UACC-257 = tested on: UACC-257
SNB-75 = tested on: SNB-75
MOLT-4 = tested on: MOLT-4
OVCAR-8 = tested on: OVCAR-8
SK-MEL-28 = tested on: SK-MEL-28
M19-MEL = tested on: M19-MEL
HOP-18 = tested on: HOP-18
DLD-1 = tested on: DLD-1
UO-31 = tested on: UO-31
LXFL 529 = tested on: LXFL 529
SF-295 = tested on: SF-295
ACHN = tested on: ACHN
SF-268 = tested on: SF-268
M14 = tested on: M14
UACC-62 = tested on: UACC-62
OVCAR-4 = tested on: OVCAR-4
HT-29 = tested on: HT-29
HL-60 = tested on: HL-60
NCI-H23 = tested on: NCI-H23
SF-539 = tested on: SF-539
SK-MEL-2 = tested on: SK-MEL-2
CCRF-CEM = tested on: CCRF-CEM
A549 = tested on: A549
SNB-78 = tested on: SNB-78
DMS-114 = tested on: DMS-114
RXF 393 = tested on: RXF 393

COc1ccc(C(N)=O)cc1/N=N/N(C)C
GI50 (DMS-273): > 100 µM (inactive)
GI50 (SN12C): > 100 µM (inactive)
GI50 (SNB-19): > 100 µM (inactive)
GI50 (EKVX): > 100 µM (inactive)
GI50 (HCT-116): > 100 µM (inactive)
GI50 (KM-20L2): > 100 µM (inactive)
GI50 (CAKI-1): > 100 µM (inactive)
GI50 (NCI-H460): > 100 µM (inactive)
GI50 (NCI-H522): > 100 µM (inactive)
GI50 (Malme-3M): > 100 µM (inactive)
GI50 (HCC 2998): > 100 µM (inactive)
GI50 (K562): > 100 µM (inactive)
GI50 (OVCAR-5): > 100 µM (inactive)
GI50 (SW-620): > 100 µM (inactive)
GI50 (HOP-62): > 100 µM (inactive)
GI50 (SK-OV-3): > 100 µM (inactive)
GI50 (SK-MEL-5): > 100 µM (inactive)
GI50 (RPMI-8226): > 100 µM (inactive)
GI50 (TK-10): > 100 µM (inactive)
GI50 (COLO 205): > 100 µM (inactive)
GI50 (HOP-92): > 100 µM (inactive)
GI50 (NCI-H226): > 100 µM (inactive)
GI50 (786-0): > 100 µM (inactive)
GI50 (SR): 39.8 µM (inactive)
GI50 (U-251): > 100 µM (inactive)
GI50 (OVCAR-3): > 100 µM (inactive)
GI50 (KM12): > 100 µM (inactive)
GI50 (IGROV-1): > 100 µM (inactive)
GI50 (A498): > 100 µM (inactive)
GI50 (LOX IMVI): > 100 µM (inactive)
GI50 (HCT-15): > 100 µM
GI50 (UACC-257): > 100 µM (inactive)
GI50 (SNB-75): > 100 µM (inactive)
GI50 (MOLT-4): > 100 µM (inactive)
GI50 (OVCAR-8): 78.3 µM (inactive)
GI50 (SK-MEL-28): > 100 µM (inactive)
GI50 (M19-MEL): > 100 µM (inactive)
GI50 (HOP-18): > 100 µM (inactive)
GI50 (DLD-1): > 100 µM (inactive)
GI50 (UO-31): > 100 µM (inactive)
GI50 (LXFL 529): > 100 µM (inactive)
GI50 (SF-295): > 100 µM (inactive)
GI50 (ACHN): > 100 µM (inactive)
GI50 (SF-268): > 100 µM (inactive)
GI50 (M14): > 100 µM (inactive)
GI50 (UACC-62): > 100 µM (inactive)
GI50 (OVCAR-4): > 100 µM (inactive)
GI50 (HT-29): > 100 µM (inactive)
GI50 (HL-60): > 100 µM (inactive)
GI50 (NCI-H23): > 100 µM (inactive)
GI50 (SF-539): > 100 µM (inactive)
GI50 (SK-MEL-2): > 100 µM (inactive)
GI50 (CCRF-CEM): > 100 µM (inactive)
GI50 (A549): > 100 µM (inactive)

Nc1nc2ncn(CCO)c2c(=S)[nH]1
GI50 (DMS-273): > 100 µM (inactive)
GI50 (SN12C): > 100 µM (inactive)
GI50 (SNB-19): > 100 µM (inactive)
GI50 (EKVX): > 100 µM (inactive)
GI50 (HCT-116): > 100 µM (inactive)
GI50 (KM-20L2): > 100 µM (inactive)
GI50 (CAKI-1): > 100 µM (inactive)
GI50 (NCI-H460): > 100 µM (inactive)
GI50 (NCI-H522): > 100 µM (inactive)
GI50 (Malme-3M): > 100 µM (inactive)
GI50 (HCC 2998): > 100 µM (inactive)
GI50 (K562): > 100 µM (inactive)
GI50 (OVCAR-5): > 100 µM (inactive)
GI50 (SW-620): > 100 µM (inactive)
GI50 (SNB-78): > 100 µM (inactive)
GI50 (HOP-62): > 100 µM (inactive)
GI50 (SK-OV-3): > 100 µM (inactive)
GI50 (SK-MEL-5): > 100 µM (inactive)
GI50 (RPMI-8226): > 100 µM (inactive)
GI50 (TK-10): > 100 µM (inactive)
GI50 (COLO 205): > 100 µM (inactive)
GI50 (HOP-92): > 100 µM (inactive)
GI50 (NCI-H226): > 100 µM (inactive)
GI50 (786-0): > 100 µM (inactive)
GI50 (DMS-114): > 100 µM (inactive)
GI50 (U-251): > 100 µM (inactive)
GI50 (RXF 393): > 100 µM (inactive)
GI50 (OVCAR-3): > 100 µM (inactive)
GI50 (KM12): > 100 µM (inactive)
GI50 (IGROV-1): > 100 µM (inactive)
GI50 (A498): > 100 µM (inactive)
GI50 (LOX IMVI): > 100 µM (inactive)
GI50 (HCT-15): > 100 µM
GI50 (UACC-257): > 100 µM (inactive)
GI50 (SNB-75): > 100 µM (inactive)
GI50 (OVCAR-8): > 100 µM (inactive)
GI50 (SK-MEL-28): > 100 µM (inactive)
GI50 (M19-MEL): > 100 µM (inactive)
GI50 (HOP-18): > 100 µM (inactive)
GI50 (DLD-1): > 100 µM (inactive)
GI50 (UO-31): > 100 µM (inactive)
GI50 (LXFL 529): > 100 µM (inactive)
GI50 (SF-295): > 100 µM (inactive)
GI50 (ACHN): > 100 µM (inactive)
GI50 (SF-268): > 100 µM (inactive)
GI50 (M14): > 100 µM (inactive)
GI50 (UACC-62): > 100 µM (inactive)
GI50 (OVCAR-4): > 100 µM (inactive)
GI50 (HT-29): > 100 µM (inactive)
GI50 (HL-60): > 100 µM (inactive)
GI50 (SF-539): > 100 µM (inactive)
GI50 (SK-MEL-2): > 100 µM (inactive)
GI50 (CCRF-CEM): > 100 µM (inactive)
GI50 (A549): > 100 µM (inactive)
